Reference: patent US8377691B2 (priority 2006, dated 2013)
“Also recorded” adds a separate entry of the source.

Legend:
Type in all cases: biochemical
[1] = molecular target: B/M2 Lee40 (Influenza B virus, UniProt P03493)
[2] = molecular target: A/M2 PR8/34 (V27S31) (Influenza A virus, UniProt P06821, A27V/N31S)
[3] = molecular target: A/M2 Udorn72 with a mutation (S31N) (Influenza A virus, UniProt P0DOF5, S31N)
[4] = molecular target: A/M2 PR8/34 (Influenza A virus, UniProt P06821)

Compound | H+ transport across VLP membranes (fluorescence) [1] | H+ translocation across VLP membranes (fluorescence) [2] | H+ transport across VLP membranes (fluorescence) [3] | H+ transport across VLP membranes (fluorescence) [4]
NC12CC3CC(CC(C3)C1)C2 [amantadine] | exerted no effect | in the absence, but not in the presence of 100 μM of the drug | resistant to inhibition | exerted no effect; also recorded: in the presence or absence of amantadine
CC(N)C12CC3CC(CC(C3)C1)C2 (stereo not drawn) [rimantadine] | exerted no effect | – | – | exerted no effect
